In patent US8088758B2, “17β-hydroxysteroid dehydrogenase type I inhibitors” (Abbott Products GmbH, priority 2003, dated 2012):

Target: T1, recombinant human 17β-hydroxysteroid dehydrogenase type 1 (Homo sapiens, UniProt P14061)
T1 construct: made in house; host or cells: Sf9 insect cells (baculovirus, Bac to Bac Expression System)
T1 sequence (P14061 1-328): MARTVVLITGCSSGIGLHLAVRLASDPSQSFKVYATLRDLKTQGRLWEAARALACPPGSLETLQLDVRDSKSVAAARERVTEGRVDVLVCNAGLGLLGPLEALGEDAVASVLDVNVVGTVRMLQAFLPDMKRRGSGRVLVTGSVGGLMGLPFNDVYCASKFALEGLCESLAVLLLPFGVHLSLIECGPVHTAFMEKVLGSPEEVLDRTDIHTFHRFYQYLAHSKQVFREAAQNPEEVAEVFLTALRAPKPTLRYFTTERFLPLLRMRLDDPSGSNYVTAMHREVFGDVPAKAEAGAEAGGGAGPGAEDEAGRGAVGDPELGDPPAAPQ
Experiment: Inhibition of recombinant human 17β-hydroxysteroid dehydrogenase type 1 (conversion of 3H-estrone to estradiol, HPLC)
Assay type: biochemical
Settings: 30 nM 3H-estrone, 1 mM NADPH, 30 min at RT; for inhibition at 0.1 µM: inhibitor 100 nM, read-out: Inhibition of rec. 17β-HSD1 (% inhibition), 100 nM; for inhibition at 1 µM: inhibitor 1 μm, read-out: Inhibition of rec. 17β-HSD1 (% inhibition), 1 μm
Method: 1. Inhibition of the 17β-hydroxysteroid Dehydrogenase Type 1 Enzyme
17β-HSD1 Purification: Recombinant baculovirus was generated by the “Bac to Bac Expression System” (Invitrogen). Recombinant bacmid was transfected to Sf9 insect cells using “Cellfectin Reagent” (Invitrogen). 60 h later cells were harvested; the microsomal fraction was isolated as described by Puranen et al. 1994. Aliquots were stored frozen until determination of enzymatic activity.
Assay—Inhibition of Recombinant Human 17β-hydroxysteroid Dehydrogenase Type 1:
Recombinant protein (0.1 μg/ml) was incubated in 20 mM KH2PO4 pH 7.4 with 30 nM 3H-estrone and 1 mM NADPH for 30 min at RT, in the presence of potential inhibitors at concentrations of 1 μM or 0.1 μM. Inhibitor stock solutions were prepared in DMSO. Final concentration of DMSO was adjusted to 1% in all samples. The enzyme reaction was stopped by addition of 10% trichloroacetic acid (final concentration). Samples were centrifuged in a microtiter plate at 4000 rpm for 10 min. Supernatants were applied to reverse phase HPLC on a Waters Symmetry C18 column, equipped with a Waters Sentry Guard column. Isocratic HPLC runs were performed at RT at a flow rate of 1 ml/min of acetonitrile:water 48:52 as running solvent. Radioactivity was monitored in the eluate by a Packard Flow Scintillation Analyzer. Total radioactivity for estrone and estradiol were determined in each sample and percent conversion of estrone to estradiol was calculated according to the following formula:
Percent inhibition was calculated as follows: % inhibition=100−% conversion

SMILES | inhibition at 0.1 µM | inhibition at 1 µM
COc1ccc2c(c1)CC[C@H]1[C@@H]3[C@H](CCCCCC(=O)N(C)Cc4ccccc4)CC(=O)[C@@]3(C)CC[C@H]21 [Example 364] | 48.7% | 90.8%
C[C@]12CC[C@@H]3c4ccc(O)cc4CC[C@H]3[C@@H]1[C@H](CCCO)CC2=O [Example 823, 3-Hydroxy-15β-(3-Hydroxypropyl)-estra-1,3,5(10)-trien-17-one] | 76.1% | 97%
COc1ccc2c(c1)CC[C@H]1[C@@H]3[C@H](CCCCC(=O)NCc4ccccc4)CC(=O)[C@@]3(C)CC[C@H]21 [Example 340] | 51.4% | 91.9%
COc1ccc(S(=O)(=O)NC[C@H]2CC(=O)[C@@]3(C)CC[C@@H]4c5ccc(O)cc5CC[C@H]4[C@H]23)cc1 [Example 668] | 52.4% | 88.3%
COc1ccc2c(c1)CCC1C2CC[C@]2(C)C(=O)C[C@H](C(=O)NCc3nc4ccccc4[nH]3)C12 (stereo partly shown) [Example 58] | 25% | 65.3%
COc1ccc2c(c1)CC[C@H]1[C@@H]3[C@H](CCCCC(=O)NC4CC4)CC(=O)[C@@]3(C)CC[C@H]21 [Example 330] | 25.2% | 75.9%
COc1ccc(S(=O)(=O)N(C)C[C@H]2CC(=O)[C@@]3(C)CC[C@@H]4c5ccc(O)cc5CC[C@H]4[C@H]23)cc1 [Example 688] | 47.4% | 91.3%
COc1ccc2c(c1)CC[C@H]1[C@@H]3[C@H](CCCOC(=O)Nc4ccc5c(c4)OCO5)CC(=O)[C@@]3(C)CC[C@H]21 [Example 748] | 48.7% | 90.6%
COc1ccc2c(c1)CC[C@H]1[C@@H]3[C@H](CCCCCC(=O)NCCc4c[nH]c5c(C)cccc45)CC(=O)[C@@]3(C)CC[C@H]21 [Example 367] | 51.5% | 73.5%
C[C@]12CC[C@@H]3c4ccc(O)cc4CC[C@H]3[C@@H]1[C@H](CCCC(=O)NCc1ccc(F)cc1F)CC2=O [Example 37, N-(2,4-Difluoro-benzyl)-4-(3-hydroxy-17-oxo-estra-1,3,5(10)-trien-15β-yl)-butyramide] | 47.4% | 87.2%
COc1ccc2c(c1)CC[C@H]1[C@@H]3[C@H](CCCCCC(=O)NCc4ccccc4)CC(=O)[C@@]3(C)CC[C@H]21 [Example 359] | 40.5% | 88.3%
COc1ccc2c(c1)CC[C@H]1[C@@H]3[C@H](CCCNC(=O)Nc4ccc5ccccc5c4)CC(=O)[C@@]3(C)CC[C@H]21 [Example 460] | 50.1% | 77.2%
COc1ccc2c(c1)CC[C@H]1[C@@H]3[C@H](CCCOC(=O)Nc4ccc(Cl)cc4Cl)CC(=O)[C@@]3(C)CC[C@H]21 [Example 744] | 37.1% | 53.9%
COc1ccc2c(c1)CC[C@H]1[C@@H]3[C@H](CCCCC(=O)NCc4ccncc4)CC(=O)[C@@]3(C)CC[C@H]21 [Example 339] | 25.9% | 82.9%
C[C@]12CC[C@@H]3c4ccc(O)cc4CC[C@H]3[C@@H]1[C@H](CCCC(=O)NCc1ccccc1)CC2=O [Example 3A, N-Benzyl-4-(3-hydroxy-17-oxo-estra-1,3,5(10)-trien-15β-yl)-butyramide] | 51.6% | 84.1%
Cc1cccc2c(CCNC(=O)CCC[C@@H]3CC(=O)[C@@]4(C)CC[C@@H]5c6ccc(O)cc6CC[C@H]5[C@H]34)c[nH]c12 [Example 36, 4-(3-Hydroxy-17-oxo-estra-1,3,5(10)-trien-15β-yl)-N-[2-(7-methyl-1H-indol-3-yl)-ethyl]-butyramide] | 72.9% | 94.3%
COc1ccc2c(c1)CC[C@H]1[C@@H]3[C@H](CCCCCC(=O)NCc4cccnc4)CC(=O)[C@@]3(C)CC[C@H]21 [Example 356] | 26.9% | 83.9%
